Assays:
P. protegens Pf-5 [1] = experiment: Genetic part characterization for P. protegens (promoters, RBSs, terminators, inducible systems; fluorescence reporter, flow cytometry); assay type: cell-based, Pseudomonas protegens; conditions: Ptac promoter and Lad (Q18M/A47V/F161Y) protein, 1 mM IPTG, P. protegens Pf-5
Source text: Construction and characterization genetic parts for P. protegens. Genetic part libraries were built on a pRO1600-ori plasmid pMR-2 using Gibson assembly (New England Biolabs, Cat # E2611). The fluorescence proteins, GFPmut3b and mRFP1 were used as reporters. The Anderson promoter library on the BioBricks Registry were utilized for the characterization of constitutive promoters (FIGS. 11A-11C). The following combinations of cognate regulators and inducible promoters were characterized. IPTG inducible LacI-Ptac, DAPG inducible PhlF-PPhl, aTc inducible TetR-PTet, 3OC6HSL inducible LuxR-PLux, arabinose inducible AraC-PBAD, cuminic acid inducible CymR-PCym, and naringenin inducible FdeR-PFde were optimized (FIGS. 15A-15C). […] RBS library for GFP was designed using the RBS library calculator at the highest-resolution mode, and the 3′ end of the 16S rRNA sequences were adjusted according to the species (3′-ACCTCCTTA-5′ for P. protegens Pf-5). Terminators for T7 RNAP were characterized by placing a terminator between two fluorescence reporters expressed from a single T7 wild-type promoter located upstream of the first fluorescence protein GFP. The expression of the two fluorescence proteins is enabled by an IPTG-inducible T7 RNAP expression system of the controller strain MR7 (FIGS. 13A-13B). All genetic parts for P. protegens Pf-5 were characterized as follows.

P. protegens Pf-5 [2] = experiment: Characterization of genomically integrated controllers (T7 promoter GFP reporter), P. protegens Pf-5; assay type: cell-based, Pseudomonas protegens; conditions: P. protegens Pf-5 controller strain MR7, reporter plasmid pMR-80
Source text: Genomic integration and characterization of controllers. The mini-Tn7 insertion system was used to introduce a controller into the genome of P. protegens Pf-5. The IPTG-inducible T7 RNAP expression system and a tetracycline resistant marker tetA was placed between two Tn7 ends (Tn7L and Tn7R). The controller plasmid pMR-85 was introduced into P. protegens Pf-5 by double transformation with pTNS3 encoding the TnsABCD transposase. A genomically-integrated controller located 25 bp downstream of the stop codon of glmS was confirmed by PCR and sequencing. A markerless insertion method using homologous recombination was employed in R. sp. IRBG74. A controller encoding inducible T7 RNAP system flanked by two homology fragments that enables the replacement of recA was cloned into a suicide plasmid. These controller plasmids (IPTG-inducible, pMR82-84; DAPG-inducible, pMR85) in E. coli was mobilized into R. sp. IRBG74 MR18 (AhsdR. Anif) by triparental mating, generating the controller strains (MR19, 20, 21 and 22, respectively). The controller integration in the genome was confirmed by gentamicin sensitivity and diagnostic PCR. All controllers were characterized in a manner identical to that described in genetic part characterization.

nifH promoter = experiment: nifH expression analysis (PnifH-sfgfp, flow cytometry), A. caulinodans; assay type: cell-based, Azorhizobium caulinodans; conditions: nifA and rpoN under IPTG control, condition used for nitrogen fixation
Description: Flow cytometry. Cultures with fluorescence proteins were analyzed by flow cytometry using a BD Biosciences LSRII Forterssa analyzer with a 488 nm laser and 510/20-nm band pass filter for GFP and a 561 nm laser and 610/20 nm band pass filter for mCherry and mRFP1. Cells were diluted into 96-well plates containing phosphate buffered saline solution (PBS) supplemented with 2 mg/mL kanamycin after incubation. Cells were collected over 20,000 events which were gated using forward and side scatter to remove background events using FlowJo (TreeStar Inc., Ashland, Oreg.). The median fluorescence from cytometry histograms was calculated for all samples. The median autofluorescence was subtracted from the median fluorescence and reported as the fluorescence value in arbitrary unit (au).
nifH expression analysis. Complementation of NifA was tested using plasmid pMR-128 to 130 that contains the sfgfp fused to the nifH promoter in the A. caulinodans ΔnifA mutant. The inducible NifA/RpoN expression was provided by the plasmid pMR-121 into which sfgfp driven by the nifH promoter was added to analyze MN promoter activity, yielding pMR-131 (FIG. 29). […] Each of the plasmids was mobilized into the A. caulinodans ΔnifA mutant, which was grown following the same protocol as used for nitrogenase activity (described herein). […]

[3] = system: E. coli Marionette MG1655; conditions: 1 mM choline-Cl
Description: The reporter plasmid pMR-120 in which gfpmut3b is fused to the PT7(P2) promoter (FIGS. 28A-28C) was co-transformed to analyze the response functions of each of the 12 T7 RNAP controller plasmids. To characterize controllers, single colonies were inoculated into 1 ml LB supplemented with antibiotics in 96-deepwell plates (USA Scientific, Cat #18962110) and grown overnight at 30° C., 900 rpm in a Multitron incubator (INFORS HT, MD). 0.5 μl of overnight cultures was diluted into 200 μl of LB with antibiotics and appropriate inducers in 96-well plates (Thermo Scientific, Cat #12565215) and incubated for 6 h at 30° C., 1,000 rpm in an ELMI DTS-4 shaker (ELMI, CA). After growth, 4 μl of culture sample was diluted into 150 μl PBS with 2 mg/mL kanamycin for flow cytometry analysis.
Flow cytometry. Cultures with fluorescence proteins were analyzed by flow cytometry using a BD Biosciences LSRII Forterssa analyzer with a 488 nm laser and 510/20-nm band pass filter for GFP and a 561 nm laser and 610/20 nm band pass filter for mCherry and mRFP1. […] The median fluorescence from cytometry histograms was calculated for all samples. The median autofluorescence was subtracted from the median fluorescence and reported as the fluorescence value in arbitrary unit (au).

SMILES | expression range of IPTG-inducible system (P. protegens Pf-5 [1]) [fold] | activation of GFP expression by the T7 promoter (P. protegens Pf-5 [2]) [fold] | dynamic range of response function from the nifH promoter (nifH promoter) [fold] | inducibility of the T7 promoter by controller plasmid [3]
CC(C)S[C@@H]1O[C@H](CO)[C@H](O)[C@H](O)[C@H]1O [IPTG, Isopropyl-beta-D-thiogalactoside] | 110 | 96 | 45 | –
C[N+](C)(C)CCO.[Cl-] [choline-Cl, Choline chloride] | – | – | – | not inducible

— patent publication US12281299B2, “Control of nitrogen fixation in rhizobia that associate with cereals” (Massachusetts Institute of Technology, priority 2019, dated 2025)
